{"source": "ChEMBL document CHEMBL5291721", "about": "“A preclinical secondary pharmacology resource illuminates target-adverse drug reaction associations of marketed drugs” (Nat Commun, 2023); further: assay procedure not described here", "key": {"[1]": {"target": "T1, Alpha-2A adrenergic receptor (Homo sapiens, UniProt P08913)", "T1 sequence (P08913 whole entry)": "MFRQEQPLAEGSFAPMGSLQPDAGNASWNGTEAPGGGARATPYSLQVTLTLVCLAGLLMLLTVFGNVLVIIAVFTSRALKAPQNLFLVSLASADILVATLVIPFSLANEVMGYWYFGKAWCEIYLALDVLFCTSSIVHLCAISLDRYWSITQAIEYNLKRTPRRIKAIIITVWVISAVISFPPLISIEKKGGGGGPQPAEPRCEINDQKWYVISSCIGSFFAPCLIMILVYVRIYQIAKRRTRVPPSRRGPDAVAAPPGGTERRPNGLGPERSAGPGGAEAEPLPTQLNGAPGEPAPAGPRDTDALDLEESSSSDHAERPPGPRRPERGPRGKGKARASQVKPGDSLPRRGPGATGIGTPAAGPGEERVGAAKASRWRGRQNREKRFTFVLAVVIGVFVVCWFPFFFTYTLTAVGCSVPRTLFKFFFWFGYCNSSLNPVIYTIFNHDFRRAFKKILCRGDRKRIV", "format": "functional, cell-based"}, "[2]": {"target": "T2, Estrogen receptor (Homo sapiens, UniProt P03372)", "T2 sequence (P03372 whole entry)": "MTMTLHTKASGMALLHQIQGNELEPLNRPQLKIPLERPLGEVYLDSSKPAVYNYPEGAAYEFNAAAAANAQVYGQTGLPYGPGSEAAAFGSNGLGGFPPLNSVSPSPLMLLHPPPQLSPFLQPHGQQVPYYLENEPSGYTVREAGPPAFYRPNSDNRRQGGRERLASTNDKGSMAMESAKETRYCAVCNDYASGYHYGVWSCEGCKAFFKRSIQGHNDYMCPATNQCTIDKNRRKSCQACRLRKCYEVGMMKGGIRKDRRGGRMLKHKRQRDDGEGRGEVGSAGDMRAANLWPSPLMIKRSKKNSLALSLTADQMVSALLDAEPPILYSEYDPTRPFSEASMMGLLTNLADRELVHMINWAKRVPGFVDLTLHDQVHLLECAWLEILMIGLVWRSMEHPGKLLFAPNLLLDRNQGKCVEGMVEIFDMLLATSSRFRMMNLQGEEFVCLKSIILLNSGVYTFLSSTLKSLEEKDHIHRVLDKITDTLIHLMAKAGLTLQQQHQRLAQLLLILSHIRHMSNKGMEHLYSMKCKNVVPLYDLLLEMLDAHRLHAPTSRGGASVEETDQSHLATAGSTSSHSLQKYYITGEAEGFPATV"}, "[3]": {"target": "T3, 5-hydroxytryptamine receptor 2C (Homo sapiens, UniProt P28335)", "T3 sequence (P28335 whole entry)": "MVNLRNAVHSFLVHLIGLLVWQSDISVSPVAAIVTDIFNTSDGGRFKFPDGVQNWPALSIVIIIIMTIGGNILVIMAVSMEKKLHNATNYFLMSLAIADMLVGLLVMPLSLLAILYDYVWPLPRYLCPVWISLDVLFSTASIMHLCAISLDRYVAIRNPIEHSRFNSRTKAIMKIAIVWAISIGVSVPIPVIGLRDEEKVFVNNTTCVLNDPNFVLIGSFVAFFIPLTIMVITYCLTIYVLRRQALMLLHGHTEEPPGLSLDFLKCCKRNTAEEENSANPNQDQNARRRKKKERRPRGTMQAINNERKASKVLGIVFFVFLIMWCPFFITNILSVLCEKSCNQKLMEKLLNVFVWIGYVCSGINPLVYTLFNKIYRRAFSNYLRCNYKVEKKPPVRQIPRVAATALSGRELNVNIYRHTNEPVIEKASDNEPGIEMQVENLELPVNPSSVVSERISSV"}, "[4]": {"target": "T4, Glucocorticoid receptor (Homo sapiens, UniProt P04150)", "T4 sequence (P04150 whole entry)": "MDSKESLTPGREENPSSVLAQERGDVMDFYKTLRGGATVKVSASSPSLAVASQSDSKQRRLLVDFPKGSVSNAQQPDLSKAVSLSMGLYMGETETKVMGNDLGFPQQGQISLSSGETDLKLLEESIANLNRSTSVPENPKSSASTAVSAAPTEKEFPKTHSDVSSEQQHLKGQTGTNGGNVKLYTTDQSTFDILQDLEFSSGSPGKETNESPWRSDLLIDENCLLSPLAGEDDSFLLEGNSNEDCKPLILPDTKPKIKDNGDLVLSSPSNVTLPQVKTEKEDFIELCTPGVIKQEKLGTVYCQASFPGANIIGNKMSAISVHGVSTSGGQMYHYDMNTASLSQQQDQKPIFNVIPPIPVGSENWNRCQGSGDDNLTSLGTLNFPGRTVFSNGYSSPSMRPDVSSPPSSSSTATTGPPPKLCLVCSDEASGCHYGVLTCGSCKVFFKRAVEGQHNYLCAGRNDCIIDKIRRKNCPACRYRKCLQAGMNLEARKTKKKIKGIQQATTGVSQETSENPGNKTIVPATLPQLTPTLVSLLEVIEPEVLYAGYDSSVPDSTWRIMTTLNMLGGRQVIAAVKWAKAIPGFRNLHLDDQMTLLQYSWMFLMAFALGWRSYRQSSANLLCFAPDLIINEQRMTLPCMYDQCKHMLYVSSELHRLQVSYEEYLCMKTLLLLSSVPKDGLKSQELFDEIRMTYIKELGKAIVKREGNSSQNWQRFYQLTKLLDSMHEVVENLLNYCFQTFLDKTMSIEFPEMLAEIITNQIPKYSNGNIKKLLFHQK"}, "[5]": {"target": "T5, Thromboxane A2 receptor (Homo sapiens, UniProt P21731)", "T5 sequence (P21731 whole entry)": "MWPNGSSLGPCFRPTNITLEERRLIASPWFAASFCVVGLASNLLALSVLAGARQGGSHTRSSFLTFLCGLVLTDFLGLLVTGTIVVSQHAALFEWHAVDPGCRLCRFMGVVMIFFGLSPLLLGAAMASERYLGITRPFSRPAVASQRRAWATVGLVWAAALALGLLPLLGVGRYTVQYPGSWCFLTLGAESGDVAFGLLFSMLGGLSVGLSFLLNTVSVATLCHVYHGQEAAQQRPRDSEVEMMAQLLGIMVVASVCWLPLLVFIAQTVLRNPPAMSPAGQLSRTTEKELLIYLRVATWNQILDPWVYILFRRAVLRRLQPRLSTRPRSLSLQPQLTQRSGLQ"}}}
{"smiles": "O=C1CN=C(c2ccccn2)c2cc(Br)ccc2N1", "note": "[BROMAZEPAM]", "values": [{"measurement": "AC50", "setting": "[1]", "value": "> 10", "unit": "µM"}, {"measurement": "AC50", "setting": "[2]", "value": "> 10", "unit": "µM"}, {"measurement": "AC50", "setting": "[3]", "value": "> 30", "unit": "µM"}, {"measurement": "AC50", "setting": "[4]", "value": "> 10", "unit": "µM"}, {"measurement": "AC50", "setting": "[5]", "value": "> 10", "unit": "µM"}]}
{"smiles": "CC(=O)O[C@H](CC(=O)[O-])C[N+](C)(C)C", "note": "[ACETYLCARNITINE]", "values": [{"measurement": "AC50", "setting": "[1]", "value": "> 30", "unit": "µM"}, {"measurement": "AC50", "setting": "[2]", "value": "> 30", "unit": "µM"}, {"measurement": "AC50", "setting": "[3]", "value": "> 30", "unit": "µM"}, {"measurement": "AC50", "setting": "[4]", "value": "> 30", "unit": "µM"}, {"measurement": "AC50", "setting": "[5]", "value": "> 30", "unit": "µM"}]}
{"smiles": "CCN(CC)CCNC(=O)c1cc(S(C)(=O)=O)ccc1OC", "note": "[TIAPRIDE]", "values": [{"measurement": "AC50", "setting": "[1]", "value": "> 30", "unit": "µM"}, {"measurement": "AC50", "setting": "[2]", "value": "> 30", "unit": "µM"}, {"measurement": "AC50", "setting": "[3]", "value": "> 30", "unit": "µM"}, {"measurement": "AC50", "setting": "[4]", "value": "> 30", "unit": "µM"}, {"measurement": "AC50", "setting": "[5]", "value": "> 30", "unit": "µM"}]}
{"smiles": "O=C1CN=C(c2ccccc2)c2cc([N+](=O)[O-])ccc2N1", "note": "[NITRAZEPAM]", "values": [{"measurement": "AC50", "setting": "[1]", "value": "> 10", "unit": "µM"}, {"measurement": "AC50", "setting": "[2]", "value": "> 10", "unit": "µM"}, {"measurement": "AC50", "setting": "[3]", "value": "> 30", "unit": "µM"}, {"measurement": "AC50", "setting": "[4]", "value": "> 10", "unit": "µM"}, {"measurement": "AC50", "setting": "[5]", "value": "> 10", "unit": "µM"}]}
{"smiles": "CCN(CC)CCN1C(=O)CN=C(c2ccccc2F)c2cc(Cl)ccc21", "note": "[FLURAZEPAM]", "values": [{"measurement": "AC50", "setting": "[1]", "value": "> 10", "unit": "µM"}, {"measurement": "AC50", "setting": "[2]", "value": "> 30", "unit": "µM"}, {"measurement": "AC50", "setting": "[3]", "value": "> 30", "unit": "µM"}, {"measurement": "AC50", "setting": "[4]", "value": "> 30", "unit": "µM"}, {"measurement": "AC50", "setting": "[5]", "value": "> 30", "unit": "µM"}]}
{"smiles": "COc1ccc2nc3cc(Cl)ccc3c(Nc3cc(CN4CCCC4)c(O)c(CN4CCCC4)c3)c2n1", "note": "[PYRONARIDINE]", "values": [{"measurement": "AC50", "setting": "[1]", "value": "> 30", "unit": "µM"}, {"measurement": "AC50", "setting": "[2]", "value": "> 30", "unit": "µM"}, {"measurement": "AC50", "setting": "[3]", "value": "> 30", "unit": "µM"}, {"measurement": "AC50", "setting": "[4]", "value": "> 30", "unit": "µM"}, {"measurement": "AC50", "setting": "[5]", "value": "> 30", "unit": "µM"}]}
